The target in this experiment is JAK1 (Homo sapiens (Human), UniProt P23458). The experiment can be described thus: Analysis of JAK1 activity inhibition ability (ADP-Glo Kinase Assay). In kind it is biochemical. The conditions noted are these: JAK1 enzyme, ADP-Glo luminescence, ATP 250 uM, IRS-itide substrate, 30° C. 40 minutes; read-out: IC50. In outline: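 ADP-Glo luminescence read-out of ADP production, with IC50 taken as the concentration halving JAK1 activity relative to control. Enzyme was incubated 40 min at 30 °C with compound, IRS-itide (40 ng/mL) and ATP (250 uM), concentrations as prepared in pH 7.5 Tris-HCl/MgCl2/BSA/DTT buffer.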
In general terms: In ADP-Glo the light output rises with the ADP produced.

Sequence of JAK1 (P23458 whole entry): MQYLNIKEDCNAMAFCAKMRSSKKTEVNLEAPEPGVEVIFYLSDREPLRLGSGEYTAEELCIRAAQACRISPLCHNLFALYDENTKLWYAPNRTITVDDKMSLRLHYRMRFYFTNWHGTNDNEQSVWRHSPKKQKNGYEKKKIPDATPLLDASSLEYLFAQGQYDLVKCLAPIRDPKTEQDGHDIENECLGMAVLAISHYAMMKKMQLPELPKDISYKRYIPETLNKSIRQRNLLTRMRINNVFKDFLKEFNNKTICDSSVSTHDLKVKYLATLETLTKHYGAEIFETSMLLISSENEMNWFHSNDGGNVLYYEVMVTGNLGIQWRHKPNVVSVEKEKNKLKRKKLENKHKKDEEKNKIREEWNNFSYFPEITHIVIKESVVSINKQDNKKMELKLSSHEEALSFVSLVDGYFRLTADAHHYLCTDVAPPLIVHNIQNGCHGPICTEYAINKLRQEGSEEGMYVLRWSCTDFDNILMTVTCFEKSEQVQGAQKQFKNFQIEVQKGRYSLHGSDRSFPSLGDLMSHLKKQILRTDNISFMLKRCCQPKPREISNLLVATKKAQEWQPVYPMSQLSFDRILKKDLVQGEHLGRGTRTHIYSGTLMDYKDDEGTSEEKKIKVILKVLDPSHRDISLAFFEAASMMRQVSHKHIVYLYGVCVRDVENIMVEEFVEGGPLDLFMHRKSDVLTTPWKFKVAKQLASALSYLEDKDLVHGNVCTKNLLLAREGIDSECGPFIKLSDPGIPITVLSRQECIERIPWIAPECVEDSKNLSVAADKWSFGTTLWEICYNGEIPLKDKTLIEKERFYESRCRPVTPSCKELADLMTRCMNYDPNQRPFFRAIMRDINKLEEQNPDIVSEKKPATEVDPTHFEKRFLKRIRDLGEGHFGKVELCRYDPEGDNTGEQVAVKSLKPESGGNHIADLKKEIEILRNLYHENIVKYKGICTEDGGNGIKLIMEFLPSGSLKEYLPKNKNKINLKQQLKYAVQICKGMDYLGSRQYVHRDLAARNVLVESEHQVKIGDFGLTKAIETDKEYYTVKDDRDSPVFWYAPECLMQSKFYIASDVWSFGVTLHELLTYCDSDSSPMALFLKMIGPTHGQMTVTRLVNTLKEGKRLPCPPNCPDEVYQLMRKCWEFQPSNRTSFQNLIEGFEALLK

As for `CCc1cc(NS(=O)(=O)CCCC#N)ccc1-c1cc(NC(=O)C2CC2)nc2[nH]ccc12` [Example 111, N-(4-(4-((3-cyanopropyl)sulfonamido)-2-ethylphenyl)-1H-pyrrolo[2,3-b]pyridin-6-yl)cyclopropanecarboxamide], the IC50 (usually the concentration at which inhibition is half-maximal) was < 20 nM.

In the case of `CCc1cc(NS(=O)(=O)C2CCCCC2)ccc1-c1cc(NC(=O)C2CC2)nc2[nH]ccc12` [Example 112, N-(4-(4-(cyclohexanesulfonamido)-2-ethylphenyl)-1H-pyrrolo[2,3-b]pyridin-6-yl)cyclopropanecarboxamide], the IC50 lay within 20 to 200 nM.

In the case of `CCc1cc(NS(=O)(=O)C2CC2)ccc1-c1cc(NC(=O)C2CC2)nc2[nH]ccc12` [Example 113, N-(4-(4-(cyclopropanesulfonamido)-2-ethylphenyl)-1H-pyrrolo[2,3-b]pyridin-6-yl)cyclopropanecarboxamide], the IC50 is < 20 nM. Take `CCc1cc(NS(=O)(=O)C2CCC2)ccc1-c1cc(NC(=O)C2CC2)nc2[nH]ccc12` [Example 114, N-(4-(4-(cyclobutanesulfonamido)-2-ethylphenyl)-1H-pyrrolo[2,3-b]pyridin-6-yl)cyclopropanecarboxamide]: the IC50 is < 20 nM. In the case of `CCCS(=O)(=O)Nc1ccc(-c2cc(NC(=O)C3CC3)nc3[nH]ccc23)c(CC)c1` [Example 115, N-(4-(2-ethyl-4-(propylsulfonamido)phenyl)-1H-pyrrolo[2,3-b]pyridin-6-yl)cyclopropanecarboxamide] it was < 20 nM; in that of `CCCCS(=O)(=O)Nc1ccc(-c2cc(NC(=O)C3CC3)nc3[nH]ccc23)c(CC)c1` [Example 116, N-(4-(4-(butylsulfonamido)-2-ethylphenyl)-1H-pyrrolo[2,3-b]pyridin-6-yl)cyclopropanecarboxamide], 20 to 200 nM. For `Cc1cc(NS(=O)(=O)CCCC(F)(F)F)ccc1-c1cc(NC(=O)C2CC2)nc2[nH]ccc12` [Example 117, N-(4-(2-methyl-4-((4,4,4-trifluorobutyl)sulfonamido)phenyl)-1H-pyrrolo[2,3-b]pyridin-6-yl)cyclopropanecarboxamide], the IC50 was < 20 nM. The result for `O=C(Nc1cc(-c2ccc(NS(=O)(=O)C3CC3)cc2C(F)(F)F)c2cc[nH]c2n1)C1CC1` [Example 118, N-(4-(4-(cyclopropanesulfonamido)-2-(trifluoromethyl)phenyl)-1H-pyrrolo[2,3-b]pyridin-6-yl)cyclopropanecarboxamide] reads 20 to 200 nM; that for `CCCS(=O)(=O)Nc1ccc(-c2cc(NC(=O)C3CC3)nc3[nH]ccc23)c(C(F)(F)F)c1` [Example 119, N-(4-(4-(propylsulfonamido)-2-(trifluoromethyl)phenyl)-1H-pyrrolo[2,3-b]pyridin-6-yl)cyclopropanecarboxamide], 20 to 200 nM; that for `O=C(Nc1cc(-c2ccc(NS(=O)(=O)C3CCC3)cc2C(F)(F)F)c2cc[nH]c2n1)C1CC1` [Example 120, N-(4-(4-(cyclobutanesulfonamido)-2-(trifluoromethyl)phenyl)-1H-pyrrolo[2,3-b]pyridin-6-yl)cyclopropanecarboxamide], 20 to 200 nM. In the case of `O=C(Nc1cc(-c2ccc(NS(=O)(=O)c3ccc(F)c(F)c3)cc2C(F)(F)F)c2cc[nH]c2n1)C1CC1` [Example 121, N-(4-(4-((3,4-difluorophenyl)sulfonamido)-2-(trifluoromethyl)phenyl)-1H-pyrrolo[2,3-b]pyridin-6-yl)cyclopropanecarboxamide] it was 20 to 200 nM; in that of `O=C(Nc1cc(-c2ccc(NS(=O)(=O)c3cccc(F)c3)cc2C(F)(F)F)c2cc[nH]c2n1)C1CC1` [Example 122, N-(4-(4-((3-fluorophenyl)sulfonamido)-2-(trifluoromethyl)phenyl)-1H-pyrrolo[2,3-b]pyridin-6-yl)cyclopropanecarboxamide], 20 to 200 nM; in that of `CCc1cc(-c2cc(NC(=O)C3CC3)nc3[nH]ccc23)ccc1NS(=O)(=O)CC1(C#N)CC1` [Example 123, N-(4-(4-(((1-cyanocyclopropyl)methyl)sulfonamido)-3-ethylphenyl)-1H-pyrrolo[2,3-b]pyridin-6-yl)cyclopropanecarboxamide], < 20 nM. On to `CCc1cc(-c2cc(NC(=O)C3CC3)nc3[nH]ccc23)ccc1NS(=O)(=O)CC` [Example 124, N-(4-(3-ethyl-4-(ethylsulfonamido)phenyl)-1H-pyrrolo[2,3-b]pyridin-6-yl)cyclopropanecarboxamide], for which the IC50 was < 20 nM. In the case of `CCc1cc(-c2cc(NC(=O)C3CC3)nc3[nH]ccc23)ccc1NS(=O)(=O)C1CC1` [Example 125, N-(4-(4-(cyclopropanesulfonamido)-3-ethylphenyl)-1H-pyrrolo[2,3-b]pyridin-6-yl)cyclopropanecarboxamide] it was < 20 nM; in that of `CCCS(=O)(=O)Nc1ccc(-c2cc(NC(=O)C3CC3)nc3[nH]ccc23)cc1CC` [Example 126, N-(4-(3-ethyl-4-(propylsulfonamido)phenyl)-1H-pyrrolo[2,3-b]pyridin-6-yl)cyclopropanecarboxamide], < 20 nM. In the case of `CCCCS(=O)(=O)Nc1ccc(-c2cc(NC(=O)C3CC3)nc3[nH]ccc23)cc1CC` [Example 127, N-(4-(4-(butylsulfonamido)-3-ethylphenyl)-1H-pyrrolo[2,3-b]pyridin-6-yl)cyclopropanecarboxamide] it was 20 to 200 nM; in that of `CCc1cc(-c2cc(NC(=O)C3CC3)nc3[nH]ccc23)ccc1NS(=O)(=O)C1CCC1` [Example 128, N-(4-(4-(cyclobutanesulfonamido)-3-ethylphenyl)-1H-pyrrolo[2,3-b]pyridin-6-yl)cyclopropanecarboxamide], < 20 nM; in that of `CS(=O)(=O)Nc1ccc(-c2cc(NC(=O)C3CC3)nc3[nH]ccc23)cc1-c1ccccc1` [Example 129, N-(4-(6-(methylsulfonamido)-[1,1′-biphenyl]-3-yl)-1H-pyrrolo[2,3-b]pyridin-6-yl)cyclopropanecarboxamide], > 200 nM. In the case of `O=C(Nc1cc(-c2ccc(NS(=O)(=O)C3CC3)c(-c3ccccc3)c2)c2cc[nH]c2n1)C1CC1` [Example 130, N-(4-(6-(cyclopropanesulfonamido)-[1,1′-biphenyl]-3-yl)-1H-pyrrolo[2,3-b]pyridin-6-yl)cyclopropanecarboxamide] it was > 200 nM; in that of `CCS(=O)(=O)Nc1ccc(-c2cc(NC(=O)C3CC3)nc3[nH]ccc23)c(C)c1C` [Example 131, N-(4-(4-(ethylsulfonamido)-2,3-dimethylphenyl)-1H-pyrrolo[2,3-b]pyridin-6-yl)cyclopropanecarboxamide], 20 to 200 nM. `CCCS(=O)(=O)Nc1ccc(-c2cc(NC(=O)C3CC3)nc3[nH]ccc23)c(C)c1C` [Example 132, N-(4-(2,3-dimethyl-4-(propylsulfonamido)phenyl)-1H-pyrrolo[2,3-b]pyridin-6-yl)cyclopropanecarboxamide]: the half-maximal inhibitory concentration (IC50) lay in the range of 20 to 200 nM. The result for `Cc1c(NS(=O)(=O)C2CC2)ccc(-c2cc(NC(=O)C3CC3)nc3[nH]ccc23)c1C` [Example 133, N-(4-(4-(cyclopropanesulfonamido)-2,3-dimethylphenyl)-1H-pyrrolo[2,3-b]pyridin-6-yl)cyclopropanecarboxamide] reads < 20 nM.

With `CCS(=O)(=O)Nc1ccc(-c2cc(NC(=O)C3CC3)[n+]([O-])c3[nH]ccc23)c(C)c1` [Example 134, 6-(cyclopropanecarboxamido)-4-(4-(ethylsulfonamido)-2-methylphenyl)-1H-pyrrolo[2,3-b]pyridine 7-oxide], the IC50 lay within 20 to 200 nM. In the case of `CCc1cc(-c2cc(NC(=O)C3CC3)[n+]([O-])c3[nH]ccc23)ccc1NS(=O)(=O)CC` [Example 135, 6-(cyclopropanecarboxamido)-4-(3-ethyl-4-(ethylsulfonamido)phenyl)-1H-pyrrolo[2,3-b]pyridine 7-oxide] it was 20 to 200 nM.

For the molecule `Cc1c(NS(=O)(=O)C2CC2)ccc(-c2cc(NC(=O)C3CC3)[n+]([O-])c3[nH]ccc23)c1C` [Example 136, 6-(cyclopropanecarboxamido)-4-(4-(cyclopropanesulfonamido)-2,3-dimethylphenyl)-1H-pyrrolo[2,3-b]pyridine 7-oxide], the IC50 lay within 20 to 200 nM. The result for `CCc1cc(NS(=O)(=O)CC2(C#N)CC2)ccc1-c1cc(NC(=O)C2CC2)[n+]([O-])c2[nH]ccc12` [Example 137, 4-(4-(((1-cyanocyclopropyl)methyl)sulfonamido)-2-ethylphenyl)-6-(cyclopropanecarboxamido)-1H-pyrrolo[2,3-b]pyridine 7-oxide] reads < 20 nM. With `CCc1cc(-c2cc(NC(=O)C3CC3)nc3[nH]ccc23)cc(CC)c1NS(=O)(=O)CC1(C#N)CC1` [Example 138, N-(4-(4-(((1-cyanocyclopropyl)methyl)sulfonamido)-3,5-diethylphenyl)-1H-pyrrolo[2,3-b]pyridin-6-yl)cyclopropanecarboxamide], the IC50 is > 200 nM. Regarding `CCc1cc(-c2cc(NC(=O)C3CC3)nc3[nH]ccc23)cc(CC)c1NS(=O)(=O)c1ccc(F)c(F)c1` [Example 139, N-(4-(4-((3,4-difluorophenyl)sulfonamido)-3,5-diethylphenyl)-1H-pyrrolo[2,3-b]pyridin-6-yl)cyclopropanecarboxamide], the IC50 is > 200 nM. The result for `CCS(=O)(=O)Nc1ccc(-c2cc(NC(=O)C3CC3)nc3[nH]ccc23)c(C(=O)OC)c1` [Example 140, methyl 2-(6-(cyclopropanecarboxamido)-1H-pyrrolo[2,3-b]pyridin-4-yl)-5-(ethylsulfonamido)benzoate] reads > 200 nM; that for `CCCS(=O)(=O)Nc1ccc(-c2cc(NC(=O)C3CC3)nc3[nH]ccc23)c(C(=O)OC)c1` [Example 141, methyl 2-(6-(cyclopropanecarboxamido)-1H-pyrrolo[2,3-b]pyridin-4-yl)-5-(propylsulfonamido)benzoate], > 200 nM.

Values taken from US11524968B2, “Heterocyclic compound as a protein kinase inhibitor” (HK inno.N Corporation, priority 2017, dated 2022).
